Results reported in PubChem BioAssay (NCI).
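Grown in 96-well plates, cells were treated for 48 hours with each compound at five concentrations. Insufficient inhibition: endpoint recorded as highest concentration tested. At the TGI there is no net growth.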

How the values were obtained:
Test in all cases: NCI tumour cell line growth inhibition, 48 h
U251 CNS = system: U251 CNS
SF-295 CNS = system: SF-295 CNS
M14 melanoma = system: M14 melanoma
HT29 colon = system: HT29 colon
786-0 renal = system: 786-0 renal
MALME-3M melanoma = system: MALME-3M melanoma
TK-10 renal = system: TK-10 renal
OVCAR-5 ovarian = system: OVCAR-5 ovarian
HCT-116 colon = system: HCT-116 colon
SK-MEL-2 melanoma = system: SK-MEL-2 melanoma
COLO 205 colon = system: COLO 205 colon
EKVX NSCLC = system: EKVX NSCLC
NCI-H522 lung = system: NCI-H522 lung
HOP-92 NSCLC = system: HOP-92 NSCLC
SK-MEL-5 melanoma = system: SK-MEL-5 melanoma
SF-268 CNS = system: SF-268 CNS
K-562 leukemia = system: K-562 leukemia
LXFL 529 NSCLC = system: LXFL 529 NSCLC
KM12 colon = system: KM12 colon
SK-OV-3 ovarian = system: SK-OV-3 ovarian
NCI-H460 lung = system: NCI-H460 lung
UACC-257 melanoma = system: UACC-257 melanoma
SNB-19 CNS = system: SNB-19 CNS
CCRF-CEM leukemia = system: CCRF-CEM leukemia
HOP-18 NSCLC = system: HOP-18 NSCLC
OVCAR-3 ovarian = system: OVCAR-3 ovarian
KM20L2 colon = system: KM20L2 colon
HOP-62 NSCLC = system: HOP-62 NSCLC
SNB-75 CNS = system: SNB-75 CNS
HCT-15 colon = system: HCT-15 colon
HCC-2998 colon = system: HCC-2998 colon
SK-MEL-28 melanoma = system: SK-MEL-28 melanoma
ACHN renal = system: ACHN renal
DMS 273 small cell lung = system: DMS 273 small cell lung
SN12C renal = system: SN12C renal
RPMI-8226 leukemia = system: RPMI-8226 leukemia
UO-31 renal = system: UO-31 renal
IGROV1 ovarian = system: IGROV1 ovarian
HL-60(TB) leukemia = system: HL-60(TB) leukemia
A549 NSCLC = system: A549 NSCLC
OVCAR-8 ovarian = system: OVCAR-8 ovarian
SW-620 colon = system: SW-620 colon
M19-MEL melanoma = system: M19-MEL melanoma
UACC-62 melanoma = system: UACC-62 melanoma
LOX IMVI melanoma = system: LOX IMVI melanoma
DLD-1 colon = system: DLD-1 colon
CAKI-1 renal = system: CAKI-1 renal
SF-539 CNS = system: SF-539 CNS
NCI-H23 lung = system: NCI-H23 lung
SR leukemia = system: SR leukemia
PC-3 prostate = system: PC-3 prostate
HS 578T breast = system: HS 578T breast
A498 renal = system: A498 renal
RXF 393 renal = system: RXF 393 renal
MCF7 breast = system: MCF7 breast
MOLT-4 leukemia = system: MOLT-4 leukemia
NCI-H226 lung = system: NCI-H226 lung
BT-549 breast = system: BT-549 breast
OVCAR-4 ovarian = system: OVCAR-4 ovarian
T-47D breast = system: T-47D breast
MDA-MB-435 = system: MDA-MB-435
MDA-MB-231 breast = system: MDA-MB-231 breast
MDA-N = system: MDA-N
DU-145 prostate = system: DU-145 prostate
NCI/ADR-RES ovarian = system: NCI/ADR-RES ovarian

CC(=O)N(C(C)=O)C1=C2c3ccccc3N(S(=O)(=O)c3ccccc3)C2n2c(=O)n(-c3ccccc3)c(=O)n2C1 (stereo not drawn)
TGI (U251 CNS): > 100 µM | TGI (SF-295 CNS): > 100 µM | TGI (M14 melanoma): 69.4 µM | TGI (HT29 colon): > 100 µM | TGI (786-0 renal): > 100 µM | TGI (MALME-3M melanoma): 46.5 µM | TGI (TK-10 renal): > 100 µM | TGI (OVCAR-5 ovarian): > 100 µM | TGI (HCT-116 colon): > 100 µM | TGI (SK-MEL-2 melanoma): 47.5 µM | TGI (COLO 205 colon): 80.2 µM | TGI (EKVX NSCLC): 61.9 µM | TGI (NCI-H522 lung): 39.5 µM | TGI (HOP-92 NSCLC): 73.9 µM | TGI (SK-MEL-5 melanoma): 58.8 µM | TGI (SF-268 CNS): > 100 µM | TGI (K-562 leukemia): > 100 µM | TGI (LXFL 529 NSCLC): > 100 µM | TGI (KM12 colon): > 100 µM | TGI (SK-OV-3 ovarian): > 100 µM | TGI (NCI-H460 lung): 42.3 µM | TGI (UACC-257 melanoma): > 100 µM | TGI (SNB-19 CNS): > 100 µM | TGI (CCRF-CEM leukemia): > 100 µM | TGI (HOP-18 NSCLC): 86.4 µM | TGI (OVCAR-3 ovarian): 81.9 µM | TGI (KM20L2 colon): > 100 µM | TGI (HOP-62 NSCLC): > 100 µM | TGI (SNB-75 CNS): 51.3 µM | TGI (HCT-15 colon): > 100 µM | TGI (HCC-2998 colon): 62.4 µM | TGI (SK-MEL-28 melanoma): 58.2 µM | TGI (ACHN renal): > 100 µM | TGI (DMS 273 small cell lung): > 100 µM | TGI (SN12C renal): > 100 µM | TGI (RPMI-8226 leukemia): 40.2 µM | TGI (UO-31 renal): > 100 µM | TGI (IGROV1 ovarian): > 100 µM | TGI (HL-60(TB) leukemia): 63.3 µM | TGI (A549 NSCLC): > 100 µM | TGI (OVCAR-8 ovarian): > 100 µM | TGI (SW-620 colon): > 100 µM | TGI (M19-MEL melanoma): 94.7 µM | TGI (UACC-62 melanoma): 35.8 µM | TGI (LOX IMVI melanoma): 81.3 µM | TGI (DLD-1 colon): > 100 µM | TGI (CAKI-1 renal): > 100 µM | TGI (SF-539 CNS): 38.5 µM | TGI (NCI-H23 lung): 95.9 µM | TGI (SR leukemia): 39.5 µM

COc1ccc(C2(CC(C)O)SCCCS2)cc1 (stereo not drawn)
TGI (U251 CNS): > 100 µM | TGI (SF-295 CNS): > 100 µM | TGI (M14 melanoma): > 100 µM | TGI (HT29 colon): > 100 µM | TGI (786-0 renal): > 100 µM | TGI (MALME-3M melanoma): > 100 µM | TGI (TK-10 renal): > 100 µM | TGI (OVCAR-5 ovarian): > 100 µM | TGI (PC-3 prostate): > 100 µM | TGI (HCT-116 colon): > 100 µM | TGI (HS 578T breast): > 100 µM | TGI (A498 renal): > 100 µM | TGI (SK-MEL-2 melanoma): > 100 µM | TGI (COLO 205 colon): > 100 µM | TGI (EKVX NSCLC): > 100 µM | TGI (NCI-H522 lung): > 100 µM | TGI (RXF 393 renal): > 100 µM | TGI (HOP-92 NSCLC): > 100 µM | TGI (SK-MEL-5 melanoma): > 100 µM | TGI (MCF7 breast): > 100 µM | TGI (SF-268 CNS): > 100 µM | TGI (MOLT-4 leukemia): > 100 µM | TGI (K-562 leukemia): > 100 µM | TGI (KM12 colon): > 100 µM | TGI (SK-OV-3 ovarian): > 100 µM | TGI (NCI-H460 lung): > 100 µM | TGI (UACC-257 melanoma): > 100 µM | TGI (SNB-19 CNS): > 100 µM | TGI (CCRF-CEM leukemia): > 100 µM | TGI (OVCAR-3 ovarian): > 100 µM | TGI (NCI-H226 lung): > 100 µM | TGI (HOP-62 NSCLC): > 100 µM | TGI (SNB-75 CNS): > 100 µM | TGI (HCT-15 colon): > 100 µM | TGI (HCC-2998 colon): > 100 µM | TGI (SK-MEL-28 melanoma): > 100 µM | TGI (ACHN renal): > 100 µM | TGI (BT-549 breast): > 100 µM | TGI (OVCAR-4 ovarian): > 100 µM | TGI (T-47D breast): > 100 µM | TGI (SN12C renal): > 100 µM | TGI (RPMI-8226 leukemia): > 100 µM | TGI (MDA-MB-435): > 100 µM | TGI (UO-31 renal): > 100 µM | TGI (IGROV1 ovarian): > 100 µM | TGI (HL-60(TB) leukemia): > 100 µM | TGI (A549 NSCLC): > 100 µM | TGI (MDA-MB-231 breast): > 100 µM | TGI (MDA-N): > 100 µM | TGI (OVCAR-8 ovarian): > 100 µM | TGI (SW-620 colon): > 100 µM | TGI (UACC-62 melanoma): > 100 µM | TGI (DU-145 prostate): > 100 µM | TGI (NCI/ADR-RES ovarian): > 100 µM | TGI (CAKI-1 renal): > 100 µM | TGI (SF-539 CNS): > 100 µM | TGI (NCI-H23 lung): > 100 µM | TGI (SR leukemia): > 100 µM
